Assay results as given in a melting point compilation (Tetko et al.; mined from patent text by program, amines drawn as free bases though some values may be those of a salt).

| SMILES | melting point |
| --- | --- |
| CCCOc1ccc([N+](=O)[O-])cc1C=O | 51 to 52 °C |
| CC(C)(C)OC(=O)N1CCN(CC(O)Cn2c3ccc(Br)cc3c3cc(Br)ccc32)CC1 (centres undefined) | 90 to 95 °C |
| COc1ccc(CCNC(=O)CN(C(C)=O)c2cccc(C(N)=O)c2)cc1OC | 111 to 113 °C |
| C#CCOc1cc(-n2nnn(CCC)c2=O)c(Cl)cc1Cl | 70 to 72 °C |
| Oc1ccc2c(c1)C13CCCCC1N(C2)NCC3 (single isomer, unassigned; (-)) | 244 to 246 °C |
| CC1(C)C=C(C(=O)O)CC1 | 67 to 69 °C |
| Cc1cc(N(C)C)nc2ccc(Br)cc12 | 81.9 to 84.1 °C |
| CON=C(CCC(=O)O)c1ccc(-c2ccc(Cl)cc2)cc1 | 183 to 186 °C |
| CSC(=S)NCCCN1CCN(c2ccccc2)CC1 | 75 to 79 °C |
| CNS(=O)(=O)CC(=O)C1=C(C)NC(C)=C(C(=O)OC)C1c1cccc([N+](=O)[O-])c1 (centres undefined) | 173 to 176 °C |
| CCOC(=O)c1ccc(/C=C(\COCc2ccc(OC)cc2)Cn2ccnc2)c(OC)c1 | 74 to 74.5 °C |
| Cn1cc(O)c(=O)c2ccc(F)cc21 | 283 to 285 °C |
| CCOCc1nc2c(N)nc3ccccc3c2n1N1CCOCC1 | 223 to 224 °C |
| COc1ccc(C2CN(c3cc(C)c4c(c3C)CC(C)(C)O4)CCO2)cc1 (centres undefined) | 107 to 108 °C |
| OC(COCc1ccccc1)C(O)COCc1ccccc1 (single isomer, unassigned; (+)) | 44 to 45 °C |
| O=C(O)C(Br)c1ccc(Cl)cc1 (centres undefined) | 92 to 93 °C |
| Fc1cccc(CC2(Cc3ccncc3)c3cccnc3-c3ncccc32)n1 | 180 to 182 °C |
| CC(C)(C)OC(=O)N1CCN(c2c(F)cc(N3CC(CO)OC3=O)cc2F)CC1 (centres undefined) | 164 to 166 °C |
| CCOC(=O)c1c(-c2ccccc2)cn2ccccc12 | 101 to 103 °C |
| CC(C)(C)c1ccc(N)nn1 | 125 to 132 °C |
| Cc1ccccc1C(=O)c1ccc(Nc2ccccc2NC(=O)CO)cc1F | 149 to 150 °C |
| O=S1CCc2nn(-c3ccc(Cl)cc3F)c(Cl)c2C1 (centres undefined) | 119 to 122 °C |
| COc1ccc(C(N)=Nc2ccc(C(=O)O)cc2)cc1C(C)(C)C | 170 to 172 °C |
| CC(C)(C)C(Nc1c(Nc2cccnc2)c(=O)c1=O)C(Oc1ccccc1)C(N)=O (centres undefined) | 227 to 228 °C |
| Cc1scc2c1N(C(=O)NCCN1CCC(CCCN(C)C)CC1)c1ccccc1NC2=O | > 300 °C |

| SMILES | melting point |
| --- | --- |
| N#Cc1cccc(-c2nc3sccn3c2-c2ccnc(N[C@@H]3CCCN(S(=O)(=O)c4ccc(Cl)cc4)C3)n2)c1 | 144 to 146 °C |
| COc1cc(N)c(C(N)=O)cc1C(=O)N[C@H]1CCN(Cc2ccc(F)cc2)C[C@H]1OC (relative stereo) | 244 °C |
| O=c1c2c(Cc3cccs3)n[nH]c2c2cccnc2n1-c1ccccc1 | 282 to 284 °C |
| COC(=O)NNC(=S)Cc1cccs1 | 74 to 75 °C |
| Nc1ccccc1C(=O)NCCCN1CCC(C(=O)c2ccc(F)cc2)CC1 | 113 °C |
| CCCNCCCC(c1ccccc1)c1ccccc1 | 94 to 96 °C |
| C=CC[C@H](C(=O)NC)c1ccc(Cl)c(Cl)c1 | 104 to 105 °C |
| CCCNc1ccc(C#CCCN2CC=C(c3ccccc3)CC2)nc1 | 138 to 139 °C |
| CCN(C(=O)Cc1c(F)cccc1F)C(c1cnccc1C(F)(F)F)C(C)C (centres undefined) | 122 °C |
| CCN1C(=O)CCc2cnc(Nc3ccccc3)cc21 | 137 to 138 °C |
| Cc1ccccc1C(=O)Nc1ccc(C(=O)N2CCCCc3sccc32)cc1 | 181 to 182 °C |
| NCc1cc(-c2ccnc(Nc3cccc(OC(F)(F)C(F)F)c3)n2)ccn1 | 64 to 67 °C |
| CCOC(=O)C(=O)NS(=O)(=O)Cc1nc(-c2ccc(Cl)c(Cl)c2)cs1 | 180 to 182 °C |
| CC(C)N(C[C@H](O)[C@H](Cc1ccccc1)NC(=O)[C@H](CC(N)=O)NCc1ccccn1)NC(=O)OC(C)(C)C | 101 to 108 °C |
| CCCCCCCN(CCO)c1cccc(O)c1 | 45 to 47 °C |
| Fc1ccc(-c2cn(C3CCCN4CCCCC34)nn2)cc1 (centres undefined) | 142 °C |
| CCCCOc1ccc(S(=O)(=O)C2(C(=O)NO)CCN(Cc3ccccn3)CC2)cc1 | 118 °C |
| O=C(Nc1nccs1)c1cn(CC2CC2)c2cc(Cl)ccc12 | 185 to 187 °C |
| Cc1oc(-c2ccccc2)nc1COc1ccc(Cn2cc(C(=O)O)c(C(C)C)n2)cc1 | 194 to 195 °C |
| CCCCCCc1ccc(-c2cnn(C(C)(C)Cc3ccc(C)cc3)c2O)cc1 | 149 to 151 °C |
| CC(C)(C#N)c1ccc2nc(O)nnc2c1 | 183 to 185 °C |
| O=C(O)/C=C/c1ccc(C(=O)NCC2CCCO2)cc1 (centres undefined) | 215 °C |
| CNC(=NC#N)NCCS(=O)Cc1nsc(NC(=N)N)n1 (centres undefined) | 185 to 186 °C |
| CON=C(C(C)=NN=Cc1ccccc1N(OC)C(=O)OC)c1ccc(F)cc1 | 88 to 90 °C |
| Nc1ccc(CCC(=O)Nc2ccc(C(=O)c3ccccc3)cc2)cc1N | 156 to 157 °C |

| SMILES | melting point |
| --- | --- |
| NC(=O)c1nnn(C2OC(CO)C(O)C2O)c1N (centres undefined) | 159 to 161 °C |
| O=C(N[C@H]1C[C@H](C(=O)O)Nc2cc(Cl)cc(Cl)c21)OCc1ccccc1 (relative stereo) | 169 °C |
| COC(=O)c1ccc(CC(C)NCC(O)c2ccc(O)c(NS(C)(=O)=O)c2)cc1 (centres undefined) | 133 to 140 °C |
| Cn1cncc1C(CC#N)(c1ccc(Cl)cc1)c1ccc2c(c1)c(-c1cccc(Cl)c1)cc(=O)n2C (centres undefined) | 151 °C |
| COc1ccc(Cn2c(C)c(C=O)c3cnnc(OCc4ccccc4)c32)cc1 | 139 to 145 °C |
| C#CCNC(=O)c1cccc(F)c1N | 89 to 91 °C |
| CC(C)P1(=O)c2ccccc2CN1Cc1ccccc1 (centres undefined) | 145 to 147 °C |
| O=C(NCc1ccccc1Cl)Nc1ccc([N+](=O)[O-])cc1O | 199 to 200 °C |
| NS(=O)(=O)c1ccc(CC(=O)C=CC(=O)O)cc1 | 180 to 181 °C |
| C1=CCN(C(c2ccccc2)c2ccccc2)C1 | 90 to 91 °C |
| C=C1CCC2C3CCC4CC(O)C(OCC)CC4(C)C3C(=O)CC12C (centres undefined) | 103 to 108 °C |
| CC(C)(C)OC(=O)N[C@@H](C(=O)N1CCC[C@H]1C(=O)NCC1CCc2n[nH]cc2C1)C(c1ccccc1)c1ccccc1 (some centres undefined) | 113 to 116 °C |
| COc1ccc(C=Cc2c(Cl)cncc2Cl)c2c1OC1(CCCC1)O2 | 100 to 101 °C |
| COc1cc2c(cc1OC)-c1[nH]c3ccc([N+](=O)[O-])cc3c1CC(=O)N2 | > 330 °C |
| CCc1cccc(Nc2ncnc3cc(OCCOC)c(OCCOC)cc23)c1 | 72 to 74 °C |
| COc1ccc(-c2cc3ccc(C)cc3s2)cc1 | 198 to 200 °C |
| CCN1C(=O)CCCc2c(OC)ccc(Nc3ncc(Cl)c(Nc4ccc(N5CCOCC5)cc4OC)n3)c21 | 218 to 220 °C |
| N#CCc1ccc(C(=O)c2ccc(Cl)cc2)[nH]1 | 203 to 205 °C |
| CC1(C)c2cc(C#N)ccc2OC1Cl (centres undefined) | 105 to 106 °C |
| O=C(CCCc1ccccc1)c1c(O)c2cccnc2n(-c2ccccc2)c1=O | 200 to 202 °C |
| CSC1=C(C#N)C(c2ccc(N(C)C)cc2)(c2cccnc2)C(=O)N1CCCN(C)C (centres undefined) | 90 to 91 °C |
| Cc1oc(C)c(C(=O)OC2CC(C)(C)NC(C)(C)C2)c1C | 54 to 58 °C |
| Cc1ccc(-c2cc3c4cc(C)ccc4n(C)c3n(C)c2=O)c(C)c1 | 150 °C |
| COc1cc2nc(N3CCc4ccc([N+](=O)[O-])cc4C3)nc(N)c2cc1OC | 135 to 137 °C |
| Cc1cc(Cl)ccc1-c1c(O)c(C)c(-c2ccccn2)oc1=O | 133 to 135 °C |

| SMILES | melting point |
| --- | --- |
| CCOC1CN(Cc2cccc(OC)c2)Cc2cc(OC)c(O)cc21 (centres undefined) | 134 to 135 °C |
| COC(=O)c1ccc(C(=O)N2CCCc3ccccc32)cc1 | 72 to 74 °C |
| CC(=C1SC(=O)NC1=O)c1ccc(S(=O)(=O)CCc2ccccc2)cc1 | 201 to 202 °C |
| OC(CCc1ccccc1)(c1ccccc1)c1cncn1Cc1ccccc1 (centres undefined) | 196 to 198 °C |
| CC(C)(C)OC(=O)c1ccc(OCCNC(=O)C2Cc3ccccc3N2S(=O)(=O)c2ccc(-c3ccc(F)cc3F)cc2)cc1 (centres undefined) | 80 °C |
| C#CCn1c(-c2cccc(C=O)c2)nc(CC)c(CC)c1=O | 82 to 86 °C |
| Nc1ncc(Cl)cc1O | 196 to 201 °C |
| CC(C)c1cc(Sc2cc(C(C)C)c(O)c(C(C)C)c2)cc(C(C)C)c1O | 93.5 to 94.2 °C |
| CN(Cc1cccc2c1CN(C1CCC(=O)NC1=O)C2=O)C(=O)Nc1cccc(C(F)(F)F)c1 (centres undefined) | 198 to 200 °C |
| CCCCOCCOc1ccc(-c2ccc3c(c2)C=C(C(=O)Nc2ccc(CSc4nncs4)cc2)CCN3CC(C)C)cc1 | 77 to 79 °C |
| CCc1cc(C)c2c(C3CCCCC3)cc(=O)n(CC)c2n1 | 79 to 80 °C |
| C#CCON=C(C(=O)O)c1nc(NC(=O)C(F)(F)F)sc1Cl | 178 to 180 °C |
| CS(=O)(=O)c1ccc(-c2cnn(Cc3ccsc3)c(=O)c2-c2ccc(F)cc2)cc1 | 169 to 172 °C |
| NC(=O)CCN1CCC(C2c3ccccc3C=Cc3ccccc32)CC1 | 135 to 140 °C |
| CCN(CC)c1ccc(C=C2Cc3ccccc3C2=O)c(C)c1 | 134 °C |
| COc1ccc2c(C=O)c(OCc3ccccc3)ccc2c1 | 115 to 117 °C |
| O=C(O)c1cccc(CC2COc3ccc(OCc4nc5cc(F)ccc5s4)cc3C2O)c1 (centres undefined) | 208 to 210 °C |
| CC(CO)N1c2ccccc2Sc2ccc(C(N)=S)cc21 (racemic) | 152 °C |
| COC(=O)Cc1ccc(Sc2ccccc2C(=O)O)c([N+](=O)[O-])c1 | 135 to 136 °C |
| Cc1cccc(O[C@@H]2CCN(S(C)(=O)=O)CC[C@H]2O)c1C (relative stereo) | 112 to 115 °C |
| CS(=O)c1ccc2nc3sc(C(=O)O)cn3c(=O)c2c1 (centres undefined) | 243 to 244 °C |
| O=C1COC(c2cccc(Cl)c2)c2cc(C3(c4ccc(Cl)cc4)OCCO3)ccc2N1 (centres undefined) | 205 °C |
| N#CC12CCN(CC1)CC2Cc1ccccc1 (centres undefined) | 82.5 to 84 °C |
| COC(=O)C1=C(CO)NC(C)=C(C(=O)OC(C)C)C1c1ccccc1[N+](=O)[O-] (centres undefined) | 135 to 137 °C |
